{"source": "patent US9084754B2", "about": "“Highly permeating terbinafine formulation” (NUVO RESEARCH INC., priority 2009, dated 2015)", "assay": "Solubility of terbinafine hydrochloride", "format": "physicochemical", "conditions": "for solubility at 24 h: thermodynamic from solid", "protocol": "Buffer Preparation: Buffers were prepared at 50 mM concentration using ammonium acetate (pHs 4.0 and 10.0) or ammonium phosphate (pHs 6.0, 7.0, and 8.0). Solubility Sample Preparation: 100 to 800 mg terbinafine HCL was transferred to separate 4-mL vials. To each vial, 2 mL of the solvent to be investigated was added. Samples were capped and then rotated for 24 hours at room temperature. The samples were allowed to settle overnight at room temperature. Approximately 0.4 mL of the supernatant was removed and transferred to a 0.45 μm Nylon microcentrifuge filter and clarified. Samples were diluted with 50% methanol to within the calibration range. Sample Analysis: Samples were analyzed by HPLC with five-minute runs.", "note": "Counter-ions that a name gives are not always drawn."}
{"compound": "CN(C/C=C/C#CC(C)(C)C)Cc1cccc2ccccc12", "note": "[Terbinafine, terbinafine hydrochloride]", "values": [{"measurement": "solubility at 24 h", "setting": "50 mM ammonium acetate buffer pH 4.0, aqueous buffer, solvent pH 4.0 buffer", "result": 4800, "unit": "µg/mL"}, {"measurement": "solubility at 24 h", "setting": "50 mM ammonium acetate buffer pH 10.0, aqueous buffer, solvent pH 10.0 buffer", "result": 1500, "unit": "µg/mL"}, {"measurement": "solubility at 24 h", "setting": "50 mM ammonium phosphate buffer pH 6.0, aqueous buffer, solvent pH 6.0 buffer", "result": 5000, "unit": "µg/mL"}, {"measurement": "solubility at 24 h", "setting": "50 mM ammonium phosphate buffer pH 7.0, aqueous buffer, solvent pH 7.0 buffer", "result": 20, "unit": "µg/mL"}, {"measurement": "solubility at 24 h", "setting": "50 mM ammonium phosphate buffer pH 8.0, aqueous buffer, solvent pH 8.0 buffer", "result": 2, "unit": "µg/mL"}, {"measurement": "solubility at 24 h", "setting": "aqueous buffer, solvent PBS pH 5.5", "result": 700, "unit": "µg/mL"}, {"measurement": "Solubility in words", "setting": "aqueous solvents with pHs of 4 and 6", "result": "moderate solubility"}, {"measurement": "solubility at 24 h", "setting": "aqueous with cosolvent or surfactant or cyclodextrin, solvent 10% Ethanol", "result": 7500, "unit": "µg/mL"}, {"measurement": "solubility at 24 h", "setting": "aqueous with cosolvent or surfactant or cyclodextrin, solvent 20% Ethanol", "result": 11000, "unit": "µg/mL"}, {"measurement": "solubility at 24 h", "setting": "aqueous with cosolvent or surfactant or cyclodextrin, solvent 40% Ethanol", "result": 53000, "unit": "µg/mL"}, {"measurement": "solubility at 24 h", "setting": "aqueous with cosolvent or surfactant or cyclodextrin, solvent 50% Ethanol", "result": 119000, "unit": "µg/mL"}, {"measurement": "Solubility in words", "setting": "non-polar solvents such as ethyl acetate and isopropyl myristate", "result": "lower solubility"}, {"measurement": "solubility at 24 h", "setting": "oil or lipid, solvent Isopropyl myristate", "result": 30, "unit": "µg/mL"}, {"measurement": "solubility at 24 h", "setting": "organic solvent or mixture, solvent DMSO", "result": 114000, "unit": "µg/mL"}, {"measurement": "solubility at 24 h", "setting": "organic solvent or mixture, solvent Ethanol", "result": 172000, "unit": "µg/mL"}, {"measurement": "solubility at 24 h", "setting": "organic solvent or mixture, solvent Isopropanol", "result": 26300, "unit": "µg/mL"}, {"measurement": "Solubility in words", "setting": "pHs 7, 8, and 10", "result": "substantially lower solubility"}, {"measurement": "Solubility in words", "setting": "polar organic solvents such as ethanol and DMSO", "result": "high solubility"}, {"measurement": "Solubility", "setting": "solvent 5% Ethanol", "result": 6700, "unit": "µg/mL"}, {"measurement": "Solubility", "setting": "solvent Ethyl acetate", "result": 700, "unit": "µg/mL"}, {"measurement": "solubility at 24 h", "setting": "solvent Water, room temperature", "result": 5900, "unit": "µg/mL"}]}
